Ends that are not written are not given here. Peptide text beside a SMILES is read from it. * marks the point of attachment. Cbz = O=C(OCc1ccccc1)*

The test system of assay [1] is FGFR3. In words: Western blotting of FGFR3 in primary chondrocytes. It is filed as cell-based, mouse. The method, then: Cell lysates were separated by SDS-PAGE. The separated proteins were immunostained with anti-FGFR3 antibody (Cell Signaling, #4574), anti-phosphorylated MAPK antibody (Cell Signaling, #9109) or anti-β-actin antibody (Cell Signaling, #49776).
The investigation of the effects of the inhibitors was performed as follows. A total of 2.5×10^5 primary chondrocytes were plated in each well of a six-well plate, and were cultured in the presence or absence of 1 μM lovastatin for 2 days. Then, the culture was supplemented with […] MG132, 100 nM Baf A1 or vehicle. Two hours later, the culture was further supplemented with 50 ng/ml FGF9 (PeproTech) and incubated at 4° C. for 2 hours. Then cells were collected and subjected to analysis by Western blotting.

The test system of assay [2] is TD-iPSCs. In words: Chondrogenic differentiation of TD-iPSCs, cartilaginous extracellular matrix by safranin O staining. It is filed as cell-based, human. To be noted: day 42; for chondrogenic differentiation of TD-iPSCs (safranin O): TD714-3, CNP 100 nM, NF449 25 μM, FGFR inhibitor 1 μM, IGF1R inhibitor 1 nM; for chondrogenic differentiation / cartilage formation of TD-iPSCs (safranin O): statin 1 μM in cartilage differentiation medium. The method, then:
(§1) The iPS cell lines were transferred to Matrigel (Invitrogen)-coated dishes, then Essential 8 medium (Life Technologies) supplemented with 50 units/ml penicillin and 50 μg/ml streptomycin was added, and the cell lines were cultured for undifferentiated maintenance under the feeder-free conditions. The iPS cell lines formed colonies that consisted of 1 to 2×10^5 cells 10 to 15 days after seeding, and the medium was changed to mesodermal differentiation medium (DMEM/F12 supplemented with 10 ng/ml Wnt3A (R&D), 10 ng/ml activin A (R&D), 1% insulin-transferrin-sodium selenite (Invitrogen), 1% fetal calf serum, 50 units/ml penicillin and 50 μg/ml streptomycin) (day zero of differentiation). Three days after (day 3 of differentiation), the medium was changed to cartilage differentiation medium (DMEM/F12 supplemented with 50 μg/ml ascorbic acid, 10 ng/ml BMP2 (Osteopharma), 10 ng/ml TGFβ (PeproTech), 10 ng/ml GDF5, 1% insulin-transferrin-sodium selenite, 1% FBS, 50 units/ml penicillin and 50 μg/ml streptomycin). Eleven days after (day 14 of differentiation), the cells were physically separated from the dishes, and transferred to a suspension culture in the same medium. Fourteen days after transfer (day 28 of differentiation) and 28 days after transfer (day 42 of differentiation), the cells formed particles and the particles were harvested for analyses. The culture medium was changed every 2 to 7 days during differentiation.
FGFR3 neutralizing antibody was added to the medium during the chondrogenic differentiation of TD-iPSCs to inhibit FGFR3 activity, and chondrocyte formation was assessed. The FGFR3 neutralizing antibody (Santa Cruz (sc-13121)) was added as 1 μl of an antibody solution (200 ng/ml) in 1 ml of cartilage differentiation medium. As a control, IgG (Cell Signaling, #27295) was used. The chondrogenic differentiation was performed in the same manner as in Example 2, and the cartilaginous particles were assessed on days 28 and 42 of differentiation.
(§2) Several drugs that had previously been reported to affect FGFR3 signaling and/or chondrocyte differentiation (CNP, NF449, a FGFR inhibitor, and an IGF1R inhibitor) were selected, and their ability to rescue TD-iPSCs from failure of chondrogenic differentiation was investigated. The stock CNP (Sigma, N8768), NF449 (Abcam, ab120415), a FGFR inhibitor (PD 173047, Cayman) and an IGF1R inhibitor (IGF-1R inhibitor, PPP. Calbiochem, 407247) solutions were prepared at a concentration of 100 μM, 50 mM, 1 mM, 1 μM, respectively. The stock solutions were added to cartilage differentiation medium at the final concentrations of CNP, NF449, the FGFR inhibitor and the IGF1R inhibitor of 100 nM, 25 μM 1 μM, and 1 nM, respectively (day 3 of differentiation). TD-iPSCs were chondrogenically differentiated in the same manner as in Example 2, and the cartilaginous particles were assessed on days 28 and 42 of differentiation. As a control, an equal volume of water or DMSO was added to the medium. mRNA expression analysis was performed in the same manner as in Example 1.
To investigate whether lovastatin rescues TD-iPSCs from failure of chondrogenic differentiation, evaluation was performed in the same manner as in Example 4. A stock lovastatin (TCI, L0214) solution was prepared by dissolving it in DMSO at a concentration of 10 mM, and the solution was added to cartilage differentiation medium at a final concentration of 1 μM.

Assay [3] deals with TD-iPSCs. Kind of assay: Real-time RT-PCR expression analysis of chondrocyte and fibroblast marker genes in chondrogenically differentiated TD-iPSCs. It is filed as cell-based, human. To be noted: TD714-3; CNP 100 nM, IGF1R inhibitor 1 nM; day 28. The method, then:
mRNAs were isolated from the cell lines using RNeasy Mini Kit (Qiagen). A total of 500 ng of the total RNA was used as a template for cDNA synthesis by reverse transcription using ReverTra Ace system (TOYOBO). Standard curves for quantitative PCR (real-time PCR) were established and used for analyses. Real-time PCR analysis was performed in Step One system (ABI) using KAPA SYBR FAST qPCR kit Master Mix ABI Prism (KAPA BIOSYSTEMS).
as §1, §2
(In general: Real-time PCR tracks product formation cycle by cycle.)

Assay [4] concerns TD-iPSC-derived cartilaginous particles. Kind of assay: Incorporation of BrdU by TD-iPSC-derived cartilaginous particles. It is filed as cell-based, human. To be noted: presence vs absence of statin, 1 μM; day 28.
The test system of assay [5] is FGFR3^Ach mice. Kind of assay: Bone growth of ACH model mice treated with statins, X-ray imaging. To be noted: day 3 to day 14, 15 days old. It is filed as in vivo, mouse. On the procedure: The FGFR3^Ach mice were crossed with wild-type mice (C57BL/6 background). A rosuvastatin solution at a dose of 1.0 mg/kg was intraperitoneally administered to the crossed mice 6 times per week from 3 days after birth until day 14. The mice were euthanized on day 15, and the bodies and the bone formation were examined by X-ray imaging (Faxitron DX-50). Genomic DNA was extracted from the toes of each mouse and subjected to genotype analysis. Also, a lovastatin solution at a dose of 0.4 mg/kg was intraperitoneally administered to the crossed mice 6 times per week from day 3 after birth until day 28, and the mice were euthanized on day 29 for examination of the bodies and the bone formation in the same manner as above.

Where [6] appears, read: rosuvastatin 1.0 mg/kg intraperitoneally 6 times per week.

For `CO/C1=C\C(C)=C\[C@@H](C)[C@@H](O)[C@@H](C)C/C(C)=C/C=C/[C@H](OC)[C@@H]([C@@H](C)[C@@H](O)[C@H](C)[C@@]2(O)C[C@@H](O)[C@H](C)[C@@H](C(C)C)O2)OC1=O` [Bafilomycin A1], in assay [1] (FGFR3^Ach chondrocytes in the presence of 1 μM lovastatin, 100 nM Baf A1), the “expression of FGFR3” value is on record as “slightly increased”.
Consider `CCN(CC)CCCCNc1ncc2cc(-c3cc(OC)cc(OC)c3)c(NC(=O)NC(C)(C)C)nc2n1` [FGFR inhibitor, PD 173047], for which the “chondrogenic differentiation of TD-iPSCs (safranin O)” value in assay [2] is on record as “had no effect on the chondrogenic differentiation of TD-iPSCs”.
On to `COc1cc([C@@H]2c3cc4c(cc3[C@H](O)[C@H]3COC(=O)[C@@H]23)OCO4)cc(OC)c1OC` [IGF1R inhibitor], for which, in assay [3], the “expression of chondrocyte marker genes (SOX9, COL2, AGGRECAN)” value is “increased the expression of chondrocyte marker genes” and the “expression of fibroblast marker genes (COL1A1, COL1A2)” value is given as “decreased the expression of fibroblast marker genes”. For the same molecule, in assay [2], the “chondrogenic differentiation of TD-iPSCs (safranin O)” value was “rescued TD-iPSCs from failure of chondrogenic differentiation”.
Regarding `CC(C)C[C@@H](C=O)NC(=O)[C@H](CC(C)C)NC(=O)[C@H](CC(C)C)NC(=O)OCc1ccccc1` [MG132] (Cbz-Leu-Leu-Leu-aldehyde), in assay [1] (FGFR3^Ach chondrocytes cultured in the presence of 1 μM lovastatin, 10 mM MG132), the “amount of FGFR3” value is “increased the amount of FGFR3”.
Take `O=C(Nc1cc(C(=O)Nc2ccc(S(=O)(=O)O)cc2S(=O)(=O)O)cc(C(=O)Nc2ccc(S(=O)(=O)O)cc2S(=O)(=O)O)c1)Nc1cc(C(=O)Nc2ccc(S(=O)(=O)O)cc2S(=O)(=O)O)cc(C(=O)Nc2ccc(S(=O)(=O)O)cc2S(=O)(=O)O)c1` [NF449]: in assay [2], the “chondrogenic differentiation of TD-iPSCs (safranin O)” value is reported as “had no effect on the chondrogenic differentiation of TD-iPSCs”.
Consider `CC(C)c1c(C(=O)Nc2ccccc2)c(-c2ccccc2)c(-c2ccc(F)cc2)n1CC[C@@H](O)C[C@@H](O)CC(=O)O` [atorvastatin], for which the “chondrogenic differentiation / cartilage formation of TD-iPSCs (safranin O)” value in assay [2] is on record as “rescued abnormal cartilage formation in the TD-iPSC-derived chondrocytes”.
The same measure, in the same setting: in the case of `CC[C@H](C)C(=O)O[C@H]1CCC=C2C=C[C@H](C)[C@H](CC[C@@H]3C[C@@H](O)CC(=O)O3)[C@H]21` [mevastatin] it was “rescued abnormal cartilage formation in the TD-iPSC-derived chondrocytes”.
Consider `CC(C)c1nc(N(C)S(C)(=O)=O)nc(-c2ccc(F)cc2)c1/C=C/[C@@H](O)C[C@@H](O)CC(=O)O` [rosuvastatin], for which the “number of BrdU-positive cells” value in assay [4] is “significantly increased the number of BrdU-positive cells”. Also, the “chondrogenic differentiation / cartilage formation of TD-iPSCs (safranin O)” value in assay [2] was “rescued abnormal cartilage formation in the TD-iPSC-derived chondrocytes”. Also, in assay [5] (setting [6]), the “anteroposterior lengths of the skulls (Cranial A-P)” value is “increased”, the “lengths of the femurs (Femur)” value is “increased”, the “lengths of the tibiae (Tibia)” value is given as “increased” and the “lengths of the ulnas (Ulna)” value was “increased”. For the same molecule, the “differences in the lengths vs wild-type mice receiving vehicle” value in assay [5] (rosuvastatin 1.0 mg/kg intraperitoneally, t-test) is “no significant differences”.
For the molecule “c-type natriuretic peptide (GLSKGCFGLKLDRIGSMSGLGC; ends and bridges not checked; cysteine pairing not given here; UniProt P23582 105-126, looked up) [CNP, c-type natriuretic peptide (Sigma, N8768)]”, in assay [3], the “expression of chondrocyte marker genes (SOX9, COL2, AGGRECAN)” value is “increased the expression of chondrocyte marker genes” and the “expression of fibroblast marker genes (COL1A1, COL1A2)” value is “decreased the expression of fibroblast marker genes”. Besides, the “chondrogenic differentiation of TD-iPSCs (safranin O)” value in assay [2] is “rescued TD-iPSCs from failure of chondrogenic differentiation”.

For the origin of these results see patent US10073083B2, “Prophylactic and therapeutic agents for FGFR3 diseases and screening method for the same” (KYOTO UNIVERSITY, priority 2013, dated 2018).
